This data set is filed under the species Homo sapiens. Briefly: Compound was tested for permeability in Caco-2 cells by HPLC method. It is filed as ADME, cell-based. For orientation: Caco-2 monolayers are a common model of the intestinal barrier.

As to `O=C(Nc1cc(C(F)(F)F)cc(C(F)(F)F)c1)c1cnc(Cl)nc1-c1cccs1`, the Permeability is 2.1 ×10⁻⁶ cm/s.
Then `O=C(Nc1cc(C(F)(F)F)cc(C(F)(F)F)c1)c1cnc(F)nc1C(F)(F)F`, with 1.9 ×10⁻⁶ cm/s.
Then `Cc1nc(Cl)ncc1C(=O)Nc1cc(C(F)(F)F)cc(C(F)(F)F)c1`, with 6.2 ×10⁻⁶ cm/s; and `CCCc1nc(Cl)ncc1C(=O)Nc1cc(C(F)(F)F)cc(C(F)(F)F)c1`, with 3.1 ×10⁻⁶ cm/s.
The same measure for `O=C(Nc1cc(C(F)(F)F)cc(C(F)(F)F)c1)c1cnc(Cl)nc1C(F)(F)F`: 1.1 ×10⁻⁶ cm/s.
With `O=C(Nc1cc(C(F)(F)F)cc(C(F)(F)F)c1)c1cnc(Cl)nc1`, the Permeability amounted to 6.1 ×10⁻⁶ cm/s.
Then `CCc1nc(Cl)ncc1C(=O)Nc1cc(C(F)(F)F)cc(C(F)(F)F)c1`, with 5.8 ×10⁻⁶ cm/s; and `O=C(Nc1cc(C(F)(F)F)cc(C(F)(F)F)c1)c1cnc(Cl)nc1Cl`, with 3.1 ×10⁻⁶ cm/s; and `O=C(Nc1cc(C(F)(F)F)cc(C(F)(F)F)c1)c1cnc(Cl)nc1C(F)(F)C(F)(F)F`, with 0.9 ×10⁻⁶ cm/s.
The same measure for `O=C(Nc1cc(C(F)(F)F)cc(C(F)(F)F)c1)c1cnc(Cl)nc1-c1ccccc1`: 0.9 ×10⁻⁶ cm/s.

These data come from ChEMBL document CHEMBL1133475, “Inhibitors of NF-kappaB and AP-1 gene expression: SAR studies on the pyrimidine portion of 2-chloro-4-trifluoromethylpyrimidine-5-[N-(3', 5'-bis(trifluoromethyl)phenyl)carboxamide]” (J Med Chem, 2000).
